Where “and” joins values, the source holds several entries; their conditions need not be identical. Equal entries are not always repeated. Toxic doses and inconclusive results are not listed. Rule for the calls: active = survival T/C of 150% or more; inactive = T/C below 125% in these data.
Test system: P388 leukemia ip, CD2F1 mice, survival T/C
Experiment: NCI In Vivo Anticancer Drug Screen. Data for tumor model P388 Leukemia (intraperitoneal) in CD2F1 (CDF1) mice
Details: endpoint: median survival time, higher = longer survival
Method in brief: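 Mice carrying the transplanted tumor received test compound or vehicle. Survival was recorded in each group, and the value is the treated-group measurement divided by that of the vehicle-treated control group.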

[1] = dose: 50.0 mg/kg/injection, schedule: Q01DX005 (ip), vehicle: saline with Tween-80
[2] = dose: 100.0 mg/kg/injection, schedule: Q01DX005 (ip), vehicle: saline with Tween-80
[3] = dose: 200.0 mg/kg/injection, schedule: Q01DX005 (ip), vehicle: saline with Tween-80
[4] = dose: 50.0 mg/kg/injection, schedule: Q01DX009 (ip), vehicle: Klucel (hydroxypropylcellulose) (HPC)
[5] = dose: 100.0 mg/kg/injection, schedule: Q01DX009 (ip), vehicle: Klucel (hydroxypropylcellulose) (HPC)
[6] = dose: 200.0 mg/kg/injection, schedule: Q01DX009 (ip), vehicle: Klucel (hydroxypropylcellulose) (HPC)
[7] = dose: 25.0 mg/kg/injection, schedule: Q01DX009 (ip), vehicle: saline
[8] = dose: 50.0 mg/kg/injection, schedule: Q01DX009 (ip), vehicle: saline with Tween-80
[9] = dose: 50.0 mg/kg/injection, schedule: Q01DX009 (ip), vehicle: saline
[10] = dose: 100.0 mg/kg/injection, schedule: Q01DX009 (ip), vehicle: saline with Tween-80
[11] = dose: 100.0 mg/kg/injection, schedule: Q01DX009 (ip), vehicle: saline
[12] = dose: 200.0 mg/kg/injection, schedule: Q01DX009 (ip), vehicle: saline with Tween-80
[13] = dose: 12.5 mg/kg/injection, schedule: Q01DX009 (ip), vehicle: Klucel (hydroxypropylcellulose) (HPC)
[14] = dose: 12.5 mg/kg/injection, schedule: Q01DX009 (ip), vehicle: saline
[15] = dose: 25.0 mg/kg/injection, schedule: Q01DX009 (ip), vehicle: Klucel (hydroxypropylcellulose) (HPC)
[16] = dose: 50.0 mg/kg/injection, schedule: Q01DX005 (ip), vehicle: Klucel (hydroxypropylcellulose) (HPC)
[17] = dose: 100.0 mg/kg/injection, schedule: Q01DX005 (ip), vehicle: Klucel (hydroxypropylcellulose) (HPC)
[18] = dose: 200.0 mg/kg/injection, schedule: Q01DX005 (ip), vehicle: Klucel (hydroxypropylcellulose) (HPC)
[19] = dose: 60.0 mg/kg/injection, schedule: Q01DX005 (ip), vehicle: saline with Tween-80
[20] = dose: 120.0 mg/kg/injection, schedule: Q01DX005 (ip), vehicle: saline with Tween-80
[21] = dose: 240.0 mg/kg/injection, schedule: Q01DX005 (ip), vehicle: saline with Tween-80
[22] = dose: 200.0 mg/kg/injection, schedule: Q01DX009 (ip), vehicle: saline
[23] = dose: 60.0 mg/kg/injection, schedule: Q01DX005 (ip), vehicle: saline
[24] = dose: 60.0 mg/kg/injection, schedule: Q01DX005 (ip), vehicle: Klucel (hydroxypropylcellulose) (HPC)
[25] = dose: 120.0 mg/kg/injection, schedule: Q01DX005 (ip), vehicle: Klucel (hydroxypropylcellulose) (HPC)
[26] = dose: 240.0 mg/kg/injection, schedule: Q01DX005 (ip), vehicle: Klucel (hydroxypropylcellulose) (HPC)

Measured: T/C

Cc1cc2c(c(=O)o1)C1=S(SC(c3ccccc3)=C1)S2 (stereo unspecified)
inactive: dose: 100.0 mg/kg/injection, schedule: Q04DX002 (ip), vehicle: saline with Tween-80 90 % of control | dose: 200.0 mg/kg/injection, schedule: Q04DX002 (ip), vehicle: saline with Tween-80 99 % of control | dose: 400.0 mg/kg/injection, schedule: Q04DX002 (ip), vehicle: saline with Tween-80 105 % of control

CN1CCc2cc(O)c(O)cc2C1
inactive: dose: 100.0 mg/kg/injection, schedule: Q04DX003 (ip), vehicle: saline 98 % of control | dose: 200.0 mg/kg/injection, schedule: Q04DX003 (ip), vehicle: saline 103 % of control

O=C(CCCC(=O)Nc1ccc2c(=O)c3ccccc3[nH]c2c1)Nc1ccc2c(=O)c3ccccc3[nH]c2c1
inactive: [1] 98 % of control | [2] 104 % of control | [3] 100 % of control

COC(=O)c1ccc(SCCC2(COS(C)(=O)=O)OCCO2)cc1
inactive: [4] 106 % of control | [5] 102 % of control | [6] 96 % of control

CSC1=NC=C(C#N)C2=NC(c3ccccc3)NN12 (stereo unspecified)
inactive: [1] 98 % of control | [2] 97 % of control | [3] 100 % of control

CCN(CC)CC(O)c1c(-c2ccccc2)c(-c2ccccc2)c2n1CCC2 (stereo unspecified)
inactive: [4] 103 % of control | [5] 106 % of control | [6] 109 % of control

CCCCN=NN/C=C/C(C)(C)C
inactive: [1] 115 % of control

OCC(O)C(O)CO (stereo unspecified)
inactive: [1] 98 % of control | [2] 104 % of control | [3] 104 % of control

COc1ccc(CSC(=S)Nc2ccc(Cl)c(C(F)(F)F)c2)cc1
inactive: dose: 25.0 mg/kg/injection, schedule: Q01DX009 (ip), vehicle: saline with Tween-80 95 % of control | [7] 104 % of control | [8] 98 % of control | [9] 109 % of control | dose: 50.0 mg/kg/injection, schedule: Q01DX009 (ip), vehicle: suspension in saline 106 % of control | [10] 100 % of control | [11] 104 % of control | dose: 100.0 mg/kg/injection, schedule: Q01DX009 (ip), vehicle: suspension in saline 124 % of control | [12] 91 % of control | dose: 200.0 mg/kg/injection, schedule: Q01DX009 (ip), vehicle: suspension in saline 124 % of control

CC1=CC(=Nc2ccc(N(CCCl)CCCl)cc2)C=C(C)C1=O
active: [13] 186 % of control | dose: 12.5 mg/kg/injection, schedule: Q01DX009 (ip), vehicle: other 153 % of control | [15] 173 % of control and 186 % of control | dose: 25.0 mg/kg/injection, schedule: Q01DX009 (ip), vehicle: other 235 % of control | [4] 170 % of control and 186 % of control | [9] 157 % of control | [11] 166 % of control
inactive: dose: 3.12 mg/kg/injection, schedule: Q01DX009 (ip), vehicle: Klucel (hydroxypropylcellulose) (HPC) 105 % of control | [14] 104 % of control and 118 % of control | [7] 114 % of control | dose: 50.0 mg/kg/injection, schedule: Q01DX009 (ip), vehicle: other 91 % of control

O=C1COC(c2ccccc2O)=NN1Cc1ccccc1
inactive: [8] 94 % of control | [10] 92 % of control | [12] 99 % of control

Cc1nnc2c3[nH]c4ccccc4c3c(Cl)nn12
inactive: [16] 99 % of control | [17] 92 % of control | [18] 98 % of control

N#CSCc1ccccc1
inactive: dose: 3.13 mg/kg/injection, schedule: Q01DX009 (ip), vehicle: saline 100 % of control | dose: 6.25 mg/kg/injection, schedule: Q01DX009 (ip), vehicle: saline 105 % of control | [14] 104 % of control

FC(F)(F)C1=NNC(c2ccc3ccccc3c2)=NN1
inactive: [4] 95 % of control | [5] 90 % of control | [6] 92 % of control

COc1ccc(CNC(=O)C2C(=O)C(=O)N(Cc3ccc(OC)c(OC)c3)C2=O)cc1OC (stereo unspecified)
inactive: [4] 105 % of control | [5] 96 % of control | [6] 103 % of control

Nc1nc(CCCCc2ccccc2)c(N=Nc2ccc(Cl)cc2)c(=O)[nH]1
inactive: [19] 97 % of control | [20] 95 % of control | [21] 103 % of control

Clc1ccc2[nH]c3ccc(Cl)cc3c2c1
inactive: [16] 104 % of control | [17] 113 % of control | [18] 113 % of control

COC(=N)C(Cl)(Cl)Cl
inactive: [9] 97 % of control | [11] 100 % of control | [22] 95 % of control

Cc1cc(C)c2c(=O)n(-c3ccccc3C)c(=S)n(-c3ccccc3C)c2n1
inactive: [19] 100 % of control | [20] 86 % of control

COC(=O)C[n+]1ccc2ccccc2c1
inactive: [9] 99 % of control | [11] 99 % of control | [22] 95 % of control

Cc1ccc(C(C(=O)O)(c2ccc(C)c(C)c2)C(O)C(=O)O)cc1C (stereo unspecified)
inactive: dose: 100.0 mg/kg/injection, schedule: Q01DX001 (ip), vehicle: Klucel (hydroxypropylcellulose) (HPC) 106 % of control | dose: 200.0 mg/kg/injection, schedule: Q01DX001 (ip), vehicle: Klucel (hydroxypropylcellulose) (HPC) 106 % of control | dose: 400.0 mg/kg/injection, schedule: Q01DX001 (ip), vehicle: Klucel (hydroxypropylcellulose) (HPC) 104 % of control

CN1CCN(C(=O)/C=C/C(=O)c2ccccc2)CC1
inactive: dose: 30.0 mg/kg/injection, schedule: Q01DX005 (ip), vehicle: Klucel (hydroxypropylcellulose) (HPC) 121 % of control | dose: 30.0 mg/kg/injection, schedule: Q01DX005 (ip), vehicle: saline 108 % of control | [23] 106 % of control and 109 % of control

Cc1cc(Oc2cnc(=O)[nH]c2)cs1
inactive: [24] 100 % of control | [25] 94 % of control | [26] 94 % of control

O=C(c1ccccc1)c1ccccc1NCC(O)COc1ccc(Cl)cc1 (stereo unspecified)
inactive: [19] 88 % of control and 96 % of control | [20] 100 % of control | [21] 99 % of control

CC1=C(C)C2C3C(=O)NC(=O)C3C1C1C3C(=O)NC(=O)C3C21 (stereo unspecified)
inactive: [23] 101 % of control | dose: 120.0 mg/kg/injection, schedule: Q01DX005 (ip), vehicle: saline 101 % of control | dose: 240.0 mg/kg/injection, schedule: Q01DX005 (ip), vehicle: saline 100 % of control

CC(=O)Nc1ccc(C(=O)N/N=C/c2ccccc2O)cc1
inactive: dose: 6.25 mg/kg/injection, schedule: Q01DX009 (ip), vehicle: Klucel (hydroxypropylcellulose) (HPC) 90 % of control | [13] 93 % of control | [15] 88 % of control

CCNc1nc(NC(C)C)nc(SC)n1
inactive: dose: 50.0 mg/kg/injection, schedule: Q04DX003 (ip), vehicle: saline with Tween-80 91 % of control | dose: 100.0 mg/kg/injection, schedule: Q04DX003 (ip), vehicle: saline with Tween-80 100 % of control | dose: 200.0 mg/kg/injection, schedule: Q04DX003 (ip), vehicle: saline with Tween-80 87 % of control

Cc1ccc(S(=O)(=O)OC[C@H]2CCCC[C@H]2COS(=O)(=O)c2ccc(C)cc2)cc1
inactive: dose: 100.0 mg/kg/injection, schedule: Q04DX003 (ip), vehicle: Klucel (hydroxypropylcellulose) (HPC) 113 % of control | dose: 200.0 mg/kg/injection, schedule: Q04DX003 (ip), vehicle: Klucel (hydroxypropylcellulose) (HPC) 114 % of control | dose: 400.0 mg/kg/injection, schedule: Q04DX003 (ip), vehicle: Klucel (hydroxypropylcellulose) (HPC) 119 % of control

Nc1nc(SCC(=O)O)[nH]c(=O)c1NS(=O)(=O)c1cccc([N+](=O)[O-])c1
inactive: [24] 96 % of control | [25] 93 % of control | [26] 93 % of control

CCn1c2ccccc2c2cc(NC(=O)N(CCCl)N=O)ccc21
active: [10] 189 % of control
inactive: dose: 6.25 mg/kg/injection, schedule: Q01DX009 (ip), vehicle: saline with Tween-80 119 % of control | dose: 12.5 mg/kg/injection, schedule: Q01DX009 (ip), vehicle: saline with Tween-80 122 % of control
